Test results from patent publication US20260240860A1, “COMPOSITION FOR REJUVENATION OF SENESCENT CELLS OR DELAY OR PREVENTION OF CELLULAR SENESCENCE” (LONO JAEYAK INC., priority 2022, published 2026).

Test system: senescent human skin fibroblasts collected from newborn skin
Assay: Experiment to confirm cell division (Hoechst assay)
Format: cell-based
Details: for cell division results when the named compound replaced KU60019 (ATM kinase inhibitor) or ABT263 (Bcl-2 inhibitor) in the combinations: FIGS. 8 to 10; for cell rejuvenation effect of the five-component combination with the named compound as ATM kinase inhibitor or Bcl-2 inhibitor: FIGS. 24 and 25, ATM kinase inhibitor+ROCK inhibitor+Bcl-2 inhibitor+SIRT1 activator+AMPK activator treated together
Experimental: The human dermal fibroblasts used in the experiment were samples collected from newborn skin (PCS-201-010; ATCC), and the cells were cultured in a culture solution of DMEM [25 mM glucose, 10% FBS (S001-01; Welgene), 100 units/ml penicillin, 10 μg/ml streptomycin, and 25 ng/ml amphotericin B (LS203-01; Welgene)] under the conditions of 37° C. and 5% CO2.
After the 48th passage, ½ of the cells were cultured. When the population doubling time (DT) exceeded 14 days and the senescence-associated β-galactosidase (SA-β) ratio exceeded 95%, experiments were conducted by considering the cells as sufficiently aged.
The cell division ability of the senescent cells treated with the compounds in the above examples and comparative examples was investigated.
The cells to be used in the experiment were transplanted into a plate three days before the experiment. The cells treated with the compounds were stained with 10 μg/ml Hoechst 33342 for 30 minutes and washed twice with phosphate-buffered saline (PBS), and the amount of the cells was quantified using a plate reader (FLUOstar Omega) at wavelengths of ex/em: 355/460 nm.
FIGS. 1 to 10 show the experimental results for each example and comparative example in which human skin fibroblasts collected from newborn skin were used as senescent cells.
An additional experiment was conducted using the same method as Experimental Example 1, but with a greater variety of concentrations of the treated substances.

Row | SMILES | cell division results when the named compound replaced KU60019 (ATM kinase inhibitor) or ABT263 (Bcl-2 inhibitor) in the combinations | cell rejuvenation effect of the five-component combination with the named compound as ATM kinase inhibitor or Bcl-2 inhibitor
1 | CNC(=O)c1ccc(-c2cnc3cnc(-c4ccccc4)cn23)cc1 [AZ32] | the results showed the same pattern | excellent cell rejuvenation effect
2 | CN(C)CC[C@H](CSc1ccccc1)Nc1ccc(S(=O)(=O)NC(=O)c2ccc(N3CCN(Cc4ccccc4-c4ccc(Cl)cc4)CC3)cc2)cc1[N+](=O)[O-] [ABT737] | the results showed the same pattern | 
3 | C/C1=C\CCC2=C[C@@H](OC2=O)c2c(C)coc2C1 [linderalactone] | the results showed the same pattern | excellent cell rejuvenation effect
